Key:
[1] = tested on: Factor XI mRNA; experiment: Cynomolgus monkeys, escalating doses: liver Factor XI RNA analysis (Example 29); assay type: in vivo; settings: escalating doses 5, 10, 25 mg/kg s.c. over 12 weeks, day 85
Experimental: Groups, each consisting of two male and three female monkeys, were injected subcutaneously with ISIS 416838, ISIS 416850, ISIS 416858, ISIS 416864, or ISIS 417002 in escalating doses. Antisense oligonucleotide was administered to the monkeys at 5 mg/kg three times per a week for week 1; 5 mg/kg twice per week for weeks 2 and 3; 10 mg/kg three times per week for week 4; 10 mg/kg twice per week for weeks 5 and 6; 25 mg/kg three times per week for week 7; and 25 mg/kg twice per week for weeks 8, 9, 10, 11, and 12. One control group, consisting of two male and three female monkeys, was injected subcutaneously with PBS according to the same dosing regimen. An additional experimental group, consisting of two male and three female monkeys, was injected subcutaneously with ISIS 416850 in a chronic, lower dose regimen. Antisense oligonucleotide was administered to the monkeys at 5 mg/kg three times per week for week 1; 5 mg/kg twice per week for week 2 and 3; 10 mg/kg three times per week for week 4; and 10 mg/kg twice per week for weeks 5 to 12. Body weights were measured weekly. Blood samples were collected 14 days and 5 days before the start of treatment and subsequently once per week for Factor XI protein activity analysis in plasma and measurement of various hematologic factors. On day 85, the monkeys were euthanized by exsanguination while under deep anesthesia, and organs harvested for further analysis.
On day 85, RNA was extracted from liver tissue for real-time PCR analysis of Factor XI using primer probe set LTS00301 (forward primer sequence […], designated herein as SEQ ID NO 271; reverse primer sequence […], designated herein as SEQ ID NO: 272; and probe sequence TGCAGGCACAGCATCCCAGTGTTCTX, wherein X is a fluorphore, designated herein as SEQ ID NO. 273). Results are presented as percent inhibition of Factor XI, relative to PBS control.

[2] = tested on: human Factor XI mRNA; experiment: Dose-dependent inhibition and IC50 in HepG2 cells, electroporation (Example 15); assay type: cell-based
Experimental: Cells were plated at a density of 20,000 cells per well and transfected using electroporation with 123.46 nM, 370.37 nM, 1,111.11 nM, 3,333.33 nM and 10,000 nM concentrations of antisense oligonucleotide, as specified in Table 52. After a treatment period of approximately 16 hours, RNA was isolated from the cells and Factor XI mRNA levels were measured by quantitative real-time PCR. Human Factor XI primer probe set RTS 2966 was used to measure mRNA levels. Factor XI mRNA levels were adjusted according to total RNA content, as measured by RIBOGREEN. Results are presented as percent inhibition of Factor XI, relative to untreated control cells.

[3] = tested on: Factor XI protein; experiment: Cynomolgus monkeys: plasma Factor XI protein ELISA (Example 30); assay type: in vivo; settings: 25 mg/kg s.c., plasma ELISA
Experimental: Groups, each consisting of two male and two female monkeys, were injected subcutaneously with 25 mg/kg of ISIS 416850, ISIS 449709, ISIS 445522, ISIS 449710, ISIS 449707, ISIS 449711, ISIS 449708, 416858 and ISIS 445531. Antisense oligonucleotide was administered to the monkeys at 25 mg/kg three times per week for week 1 and 25 mg/kg twice per week for weeks 2 to 8. A control group, consisting of two male and two female monkeys was injected subcutaneously with PBS according to the same dosing regimen. Body weights were taken 14 days and 7 days before the start of treatment and were then measured weekly throughout the treatment period. Blood samples were collected 14 days and 5 days before the start of treatment and subsequently several times during the dosing regimen for measurement of various hematologic factors. On day 55, the monkeys were euthanized by exsanguination while under deep anesthesia, and organs harvested for further analysis.
Plasma samples from all monkey groups taken on different days were analyzed by a sandwich-style ELISA assay (Affinity Biologicals Inc.) using an affinity-purified polyclonal anti-Factor XI antibody as the capture antibody and a peroxidase-conjugated polyclonal anti-Factor XI antibody as the detecting antibody. Monkey plasma was diluted 1:50 for the assay. Peroxidase activity was expressed by incubation with the substrate o-phenylenediamine. The color produced was quantified using a microplate reader at 490 nm and was considered to be proportional to the concentration of Factor XI in the samples.
The results are presented in Table 148, expressed as percentage reduction relative to that of the PBS control.

For “416838 (antisense GCAACCGGGATGATGAGTGC; 5-10-5 gapmer, wing sugar chemistry not given here, further chemistry not given here) [compound 416838]”, the “% inhibition of Factor XI mRNA in liver relative to the PBS control” value [1] was 37%.
In the case of “416850 (antisense TGCACAGTTTCTGGCAGGCC; 5-10-5 gapmer, wing sugar chemistry not given here, further chemistry not given here) [compound 416850]”, the “percent inhibition of Factor XI mRNA” value ([2]; electroporation, 123.47 nM) is reported as 0%, the “percent inhibition of Factor XI mRNA” value ([2]; electroporation, 370.37 nM) is reported as 12% and the “percent inhibition of Factor XI mRNA” value ([2]; electroporation, 1,111.11 nM) is reported as 36%. For the same substance, the “percent inhibition of Factor XI mRNA” value ([2]; electroporation, 3,333.33 nM) was 74%, the “percent inhibition of Factor XI mRNA” value ([2]; electroporation, 10,000.0 nM) was 73% and the “Inhibition of Factor XI protein relative to the PBS control” value ([3]; Day 10) was 20%. For the same substance, the “Inhibition of Factor XI protein relative to the PBS control” value ([3]; Day 17) was 31%, the “Inhibition of Factor XI protein relative to the PBS control” value ([3]; Day 24) was 38% and the “Inhibition of Factor XI protein relative to the PBS control” value ([3]; Day 31) was 52%. The “Inhibition of Factor XI protein relative to the PBS control” value ([3]; Day 38) was 51%, the “Inhibition of Factor XI protein relative to the PBS control” value ([3]; Day 45) was 53% and the “Inhibition of Factor XI protein relative to the PBS control” value ([3]; Day 52) was 53%. For the same substance, the “Inhibition of Factor XI protein relative to the PBS control” value ([3]; Day 55) was 58%, the “Inhibition of Factor XI protein relative to the PBS control” value ([3]; Day −5) was 0% and the “Inhibition of Factor XI protein relative to the PBS control” value ([3]; Day −14) was 0%. The “% inhibition of Factor XI mRNA in liver relative to the PBS control” value [1] was 84%.
“416858 (antisense ACGGCATTGGTGCACAGTTT; 5-10-5 gapmer, wing sugar chemistry not given here, further chemistry not given here) [compound 416858]” was tested, and the “percent inhibition of Factor XI mRNA” value ([2]; electroporation, 123.47 nM) was 0%, the “percent inhibition of Factor XI mRNA” value ([2]; electroporation, 370.37 nM) was 27% and the “percent inhibition of Factor XI mRNA” value ([2]; electroporation, 1,111.11 nM) was 36%. For the same substance, the “percent inhibition of Factor XI mRNA” value ([2]; electroporation, 3,333.33 nM) was 64%, the “percent inhibition of Factor XI mRNA” value ([2]; electroporation, 10,000.0 nM) was 70% and the “Inhibition of Factor XI protein relative to the PBS control” value ([3]; Day 10) was 36%. For the same substance, the “Inhibition of Factor XI protein relative to the PBS control” value ([3]; Day 17) was 49%, the “Inhibition of Factor XI protein relative to the PBS control” value ([3]; Day 24) was 62% and the “Inhibition of Factor XI protein relative to the PBS control” value ([3]; Day 31) was 68%. For the same substance, the “Inhibition of Factor XI protein relative to the PBS control” value ([3]; Day 38) was 74%, the “Inhibition of Factor XI protein relative to the PBS control” value ([3]; Day 45) was 79% and the “Inhibition of Factor XI protein relative to the PBS control” value ([3]; Day 52) was 81%. For the same substance, the “Inhibition of Factor XI protein relative to the PBS control” value ([3]; Day 55) was 81%, the “Inhibition of Factor XI protein relative to the PBS control” value ([3]; Day −5) was 0% and the “Inhibition of Factor XI protein relative to the PBS control” value ([3]; Day −14) was 4%. For the same substance, the “% inhibition of Factor XI mRNA in liver relative to the PBS control” value [1] was 90%.
“416864 (antisense GGCAGCGGACGGCATTGGTG; 5-10-5 gapmer, wing sugar chemistry not given here, further chemistry not given here) [compound 416864]” was tested, and the “% inhibition of Factor XI mRNA in liver relative to the PBS control” value [1] was 44%.
